Test results reported in patent US20260232767A1, “INTERLEUKIN-23 RECEPTOR ANTAGONIST PEPTIDES FOR USE IN THE TREATMENT OF PSORIASIS” (Janssen Pharmaceutica NV, priority 2023, published 2026).

Test system: subjects with moderate-to-severe plaque psoriasis
Test: Safety, adverse events, Example 2 through Week 56
Format: in vivo, human
Conditions: through Week 56; for Subjects with 1 or more Serious adverse events: Tonsillar hypertrophy / Subjects with 1 or more Serious adverse events: Uterine leiomyoma / Subjects with 1 or more Serious adverse events: Ventricular dysfunction / Subjects with 1 or more treatment-emergent adverse events leading to discontinuation of study agent / Subjects with 1 or more Adverse events / Subjects with 1 or more Adverse events: Alanine aminotransferase increased / Subjects with 1 or more Adverse events: Arthralgia / Subjects with 1 or more Adverse events: Aspartate aminotransferase increased / Subjects with 1 or more Adverse events: Bronchitis / Subjects with 1 or more Adverse events: COVID-19 / Subjects with 1 or more Adverse events: Cough / Subjects with 1 or more Adverse events: Diarrhea / Subjects with 1 or more Adverse events: Headache / Subjects with 1 or more Adverse events: Influenza / Subjects with 1 or more Adverse events: Nasopharyngitis / Subjects with 1 or more Adverse events: Upper respiratory tract infection / Subjects with 1 or more Adverse events: Urinary tract infection / Subjects with 1 or more Serious adverse events / Subjects with 1 or more Serious adverse events: COVID-19 / Subjects with 1 or more Serious adverse events: Cerebrovascular accident / Subjects with 1 or more Serious adverse events: Coronary artery disease / Subjects with 1 or more Serious adverse events: Diverticulitis / Subjects with 1 or more Serious adverse events: Foot deformity / Subjects with 1 or more Serious adverse events: Infected cyst / Subjects with 1 or more Serious adverse events: Intervertebral disc protrusion / Subjects with 1 or more Serious adverse events: Ligament injury / Subjects with 1 or more Serious adverse events: Non-cardiac chest pain / Subjects with 1 or more Serious adverse events: Suicide attempt: number of subjects
Excerpt: The LTE safety analysis was based on randomized participants in Example who entered the present long-term extension study and received at least one dose of study intervention (including a partial dose) during the study period.

[1] = Placebo → 100 mg QD after crossover

SMILES: CC(=O)NCCCC[C@@H]1NC(=O)[C@H](Cc2c[nH]c3c(C)cccc23)NC(=O)[C@H]([C@@H](C)O)NC(=O)[C@H](CC(N)=O)NC(=O)[C@@H](NC(C)=O)C(C)(C)SSC(C)(C)[C@@H](C(=O)N[C@@H](Cc2ccc(OCCN)cc2)C(=O)N[C@@H](Cc2ccc3ccccc3c2)C(=O)NC2(C(=O)N[C@@H](CCC(=O)O)C(=O)N[C@@H](CC(N)=O)C(=O)N[C@@H](Cc3cccnc3)C(=O)N(C)CC(N)=O)CCOCC2)NC1=O [IL-23 receptor antagonist peptide, Ac-[Pen]*-N-T-[W(7-Me)]-[Lys(Ac)]-[Pen]*-Phe[4-(2-aminoethoxy)]-[2-Nal]-[THP]-E-N-[3-Pal]-Sarc-NH2 (*[Pen]-[Pen]* formdisulfidebond)]
- Subjects with 1 or more Serious adverse events: Tonsillar hypertrophy (50 mg QD): 0
- Subjects with 1 or more Serious adverse events: Uterine leiomyoma (50 mg QD): 0
- Subjects with 1 or more Serious adverse events: Ventricular dysfunction (50 mg QD): 0
- Subjects with 1 or more treatment-emergent adverse events leading to discontinuation of study agent (50 mg QD): 2
- Subjects with 1 or more Adverse events (100 mg BID): 32
- Subjects with 1 or more Adverse events: Alanine aminotransferase increased (100 mg BID): 4
- Subjects with 1 or more Adverse events: Arthralgia (100 mg BID): 2
- Subjects with 1 or more Adverse events: Aspartate aminotransferase increased (100 mg BID): 3
- Subjects with 1 or more Adverse events: Bronchitis (100 mg BID): 0
- Subjects with 1 or more Adverse events: COVID-19 (100 mg BID): 7
- Subjects with 1 or more Adverse events: Cough (100 mg BID): 2
- Subjects with 1 or more Adverse events: Diarrhea (100 mg BID): 1
- Subjects with 1 or more Adverse events: Headache (100 mg BID): 1
- Subjects with 1 or more Adverse events: Influenza (100 mg BID): 1
- Subjects with 1 or more Adverse events: Nasopharyngitis (100 mg BID): 5
- Subjects with 1 or more Adverse events: Upper respiratory tract infection (100 mg BID): 5
- Subjects with 1 or more Adverse events: Urinary tract infection (100 mg BID): 2
- Subjects with 1 or more Serious adverse events (100 mg BID): 1
- Subjects with 1 or more Serious adverse events: COVID-19 (100 mg BID): 0
- Subjects with 1 or more Serious adverse events: Cerebrovascular accident (100 mg BID): 0
- Subjects with 1 or more Serious adverse events: Coronary artery disease (100 mg BID): 0
- Subjects with 1 or more Serious adverse events: Diverticulitis (100 mg BID): 0
- Subjects with 1 or more Serious adverse events: Foot deformity (100 mg BID): 0
- Subjects with 1 or more Serious adverse events: Infected cyst (100 mg BID): 0
- Subjects with 1 or more Serious adverse events: Intervertebral disc protrusion (100 mg BID): 0
- Subjects with 1 or more Serious adverse events: Ligament injury (100 mg BID): 0
- Subjects with 1 or more Serious adverse events: Non-cardiac chest pain (100 mg BID): 0
- Subjects with 1 or more Serious adverse events: Suicide attempt (100 mg BID): 0
- Subjects with 1 or more Serious adverse events: Tonsillar hypertrophy (100 mg BID): 0
- Subjects with 1 or more Serious adverse events: Uterine leiomyoma (100 mg BID): 1
- Subjects with 1 or more Serious adverse events: Ventricular dysfunction (100 mg BID): 0
- Subjects with 1 or more treatment-emergent adverse events leading to discontinuation of study agent (100 mg BID): 1
- Subjects with 1 or more Adverse events (100 mg QD): 31
- Subjects with 1 or more Adverse events: Alanine aminotransferase increased (100 mg QD): 0
- Subjects with 1 or more Adverse events: Arthralgia (100 mg QD): 3
- Subjects with 1 or more Adverse events: Aspartate aminotransferase increased (100 mg QD): 0
- Subjects with 1 or more Adverse events: Bronchitis (100 mg QD): 0
- Subjects with 1 or more Adverse events: COVID-19 (100 mg QD): 5
- Subjects with 1 or more Adverse events: Cough (100 mg QD): 3
- Subjects with 1 or more Adverse events: Diarrhea (100 mg QD): 1
- Subjects with 1 or more Adverse events: Headache (100 mg QD): 5
- Subjects with 1 or more Adverse events: Influenza (100 mg QD): 1
- Subjects with 1 or more Adverse events: Nasopharyngitis (100 mg QD): 11
- Subjects with 1 or more Adverse events: Upper respiratory tract infection (100 mg QD): 2
- Subjects with 1 or more Adverse events: Urinary tract infection (100 mg QD): 0
- Subjects with 1 or more Serious adverse events (100 mg QD): 3
- Subjects with 1 or more Serious adverse events: COVID-19 (100 mg QD): 1
- Subjects with 1 or more Serious adverse events: Cerebrovascular accident (100 mg QD): 0
- Subjects with 1 or more Serious adverse events: Coronary artery disease (100 mg QD): 0
- Subjects with 1 or more Serious adverse events: Diverticulitis (100 mg QD): 1
- Subjects with 1 or more Serious adverse events: Foot deformity (100 mg QD): 0
- Subjects with 1 or more Serious adverse events: Infected cyst (100 mg QD): 0
- Subjects with 1 or more Serious adverse events: Intervertebral disc protrusion (100 mg QD): 1
- Subjects with 1 or more Serious adverse events: Ligament injury (100 mg QD): 0
- Subjects with 1 or more Serious adverse events: Non-cardiac chest pain (100 mg QD): 0
- Subjects with 1 or more Serious adverse events: Suicide attempt (100 mg QD): 1
- Subjects with 1 or more Serious adverse events: Tonsillar hypertrophy (100 mg QD): 0
- Subjects with 1 or more Serious adverse events: Uterine leiomyoma (100 mg QD): 0
- Subjects with 1 or more Serious adverse events: Ventricular dysfunction (100 mg QD): 0
- Subjects with 1 or more treatment-emergent adverse events leading to discontinuation of study agent (100 mg QD): 2
- Subjects with 1 or more Adverse events (Combined): 174
- Subjects with 1 or more Adverse events: Alanine aminotransferase increased (Combined): 9
- Subjects with 1 or more Adverse events: Arthralgia (Combined): 8
- Subjects with 1 or more Adverse events: Aspartate aminotransferase increased (Combined): 7
- Subjects with 1 or more Adverse events: Bronchitis (Combined): 9
- Subjects with 1 or more Adverse events: COVID-19 (Combined): 35
- Subjects with 1 or more Adverse events: Cough (Combined): 8
- Subjects with 1 or more Adverse events: Diarrhea (Combined): 11
- Subjects with 1 or more Adverse events: Headache (Combined): 12
- Subjects with 1 or more Adverse events: Influenza (Combined): 7
- Subjects with 1 or more Adverse events: Nasopharyngitis (Combined): 49
- Subjects with 1 or more Adverse events: Upper respiratory tract infection (Combined): 24
- Subjects with 1 or more Adverse events: Urinary tract infection (Combined): 8
- Subjects with 1 or more Serious adverse events (Combined): 11
- Subjects with 1 or more Serious adverse events: COVID-19 (Combined): 1
- Subjects with 1 or more Serious adverse events: Cerebrovascular accident (Combined): 1
- Subjects with 1 or more Serious adverse events: Coronary artery disease (Combined): 1
- Subjects with 1 or more Serious adverse events: Diverticulitis (Combined): 1
- Subjects with 1 or more Serious adverse events: Foot deformity (Combined): 1
- Subjects with 1 or more Serious adverse events: Infected cyst (Combined): 1
- Subjects with 1 or more Serious adverse events: Intervertebral disc protrusion (Combined): 1
- Subjects with 1 or more Serious adverse events: Ligament injury (Combined): 1
- Subjects with 1 or more Serious adverse events: Non-cardiac chest pain (Combined): 1
- Subjects with 1 or more Serious adverse events: Suicide attempt (Combined): 1
- Subjects with 1 or more Serious adverse events: Tonsillar hypertrophy (Combined): 1
- Subjects with 1 or more Serious adverse events: Uterine leiomyoma (Combined): 1
- Subjects with 1 or more Serious adverse events: Ventricular dysfunction (Combined): 1
- Subjects with 1 or more treatment-emergent adverse events leading to discontinuation of study agent (Combined): 10
- Subjects with 1 or more Adverse events [1]: 23
- Subjects with 1 or more Adverse events: Alanine aminotransferase increased [1]: 2
- Subjects with 1 or more Adverse events: Arthralgia [1]: 1
- Subjects with 1 or more Adverse events: Aspartate aminotransferase increased [1]: 1
- Subjects with 1 or more Adverse events: Bronchitis [1]: 1
- Subjects with 1 or more Adverse events: COVID-19 [1]: 2
- Subjects with 1 or more Adverse events: Cough [1]: 0
- Subjects with 1 or more Adverse events: Diarrhea [1]: 1
- Subjects with 1 or more Adverse events: Headache [1]: 0
- Subjects with 1 or more Adverse events: Influenza [1]: 1
- Subjects with 1 or more Adverse events: Nasopharyngitis [1]: 9
- Subjects with 1 or more Adverse events: Upper respiratory tract infection [1]: 4
- Subjects with 1 or more Adverse events: Urinary tract infection [1]: 2
- Subjects with 1 or more Serious adverse events [1]: 1
- Subjects with 1 or more Serious adverse events: COVID-19 [1]: 0
- Subjects with 1 or more Serious adverse events: Cerebrovascular accident [1]: 1
- Subjects with 1 or more Serious adverse events: Coronary artery disease [1]: 0
- Subjects with 1 or more Serious adverse events: Diverticulitis [1]: 0
- Subjects with 1 or more Serious adverse events: Foot deformity [1]: 0
- Subjects with 1 or more Serious adverse events: Infected cyst [1]: 0
- Subjects with 1 or more Serious adverse events: Intervertebral disc protrusion [1]: 0
- Subjects with 1 or more Serious adverse events: Ligament injury [1]: 0
- Subjects with 1 or more Serious adverse events: Non-cardiac chest pain [1]: 0
- Subjects with 1 or more Serious adverse events: Suicide attempt [1]: 0
- Subjects with 1 or more Serious adverse events: Tonsillar hypertrophy [1]: 0
- Subjects with 1 or more Serious adverse events: Uterine leiomyoma [1]: 0
- Subjects with 1 or more Serious adverse events: Ventricular dysfunction [1]: 0
- Subjects with 1 or more treatment-emergent adverse events leading to discontinuation of study agent [1]: 0
- Subjects with Abdominal distension: 0
- Subjects with Abscess limb: 0
- Subjects with Constipation: 0
- Subjects with Gastrointestinal disorders (system organ class): (16.7%)
- Subjects with Headache: (11.6%)
